Test results: patent publication US20230339882A1, “SHP2 INHIBITOR AND COMPOSITION AND APPLICATION THEREOF” (Betta Pharmaceuticals Co., Ltd., priority 2020, published 2023)

Assays:
[1] = system: lung cancer cells NCI-H358; experiment: Cell proliferation assay, CELL TITER-GLO (CTG) luminescence, NCI-H358; type: cell-based; settings: cultured for 96 hrs
Method: (§1) Example B: Cell Proliferation Assay
(§2) The effects of the compounds of the invention on the proliferation of leukemia cells MV-4-11 and lung cancer cells NCI-H358 were evaluated using in vitro cell assays. The detection method used in the experiment is the CELL TITER-GLO (CTG) luminescence method, which can detect the number of viable cells by quantifying ATP. Because ATP participates in a variety of enzymatic reactions in vivo, it is an indicator of the metabolism of living cells, and its content directly reflects the number and state of cells. During the experiment, CellTiter-Glo™ reagent was added to the cell culture medium to measure the luminescence value. The value is proportional to the amount of ATP, and ATP is positively related to the number of living cells, so the cell viability can be examined by detecting the ATP content.
(§3) experiment procedure: • (1) Cell plating: • Take a bottle of MV-4-11 cells in logarithmic growth phase, resuspend the cells by centrifugation and count them. After adjusting the cell density, they were seeded into a 96-well plate (Corning #3917). After culturing in a 5% CO2 incubator for 24 hrs, the compound of the present invention was added for treatment; • Take a bottle of NCI-H358 cells in logarithmic growth phase, digest and resuspend the cells, count them, adjust the cell density, and inoculate them into a 96-well transparent ultra-low adsorption cell culture plate (Corning #3474), inoculate 2000 cells per well. The plate was placed in an incubator at 37° C. and 5% CO2 for 24 hrs, and then the compound of the present invention was added for treatment; • (2) Cell compound treatment: • An appropriate amount of the compound of the present invention was prepared for cell treatment. The final concentration of the compound from high to low was 1000 nM, 333.3 nM, 111.1 nM, 37.04 nM, 12.35 nM, 4.115 nM, 1.372 nM, 0.4572 nM, 0.1524 nM, and 0 nM. The plate was placed in a 37° C., 5% CO2 incubator for 120 hrs. Only adding medium without cell wells was set as the blank group; the group with compound concentration of 0 nM was the zero-adjusting group. • (3) CTG detection: • After NCI-H358 cells were cultured for 96 hrs, 50 µL of CellTiter-Glo® Luminescent Cell Viability Assay solution was added to each well, shaken gently for 2 mins, and incubated at room temperature for 10 mins. The cell reaction system was transferred to a white-bottomed 96-well plate. Read the detection value of each well on a multi-function microplate reader. • After MV-4-11 cells were cultured for 120 hrs, 50 µL of CellTiter-Glo® Luminescent Cell Viability Assay solution was added to each well, gently shaken for 2 mins, and incubated at room temperature for 10 mins. Check the value. • (4) Data analysis: • Calculate the inhibition rate from the luminescence value readings, • [formula]
(§4) The log(inhibitor) vs. response-Variable slope of GraphPad Prism was fitted to dose-response curves and IC50s of compounds that inhibited cell proliferation were calculated.

leukemia cells MV-4-11 = experiment: Cell proliferation assay, CELL TITER-GLO (CTG) luminescence, MV-4-11; type: cell-based
Method: as §1, §2, §3, §4

SHP2 = SHP2 (Homo sapiens (Human), UniProt Q06124); experiment: SHP2 allosteric inhibitory enzyme activity assay (DiFMUP fluorescence); type: biochemical; settings: read-out: SHP2 enzymatic activity IC50
Text: Example A: SHP2 Allosteric Inhibitory Enzyme Activity Assay
SHP2 is allosterically activated by binding of a bis-tyrosyl-phosphorylated peptide to its Src homology 2 (SH2) domain. This later activation step results in the release of the autoinhibitory interface of SHP2, which in turn activates the SHP2 protein tyrosine phosphatase (PTP) and is available for substrate recognition and reaction catalysis. The catalytic activity of SHP2 was monitored using the surrogate DiFMUP in a rapid fluorescence assay format.
experiment procedure: • (1) Compound preparation: • The compounds of the present invention (10 mM stock solution) were diluted to appropriate times with 100% DMSO, and the final test concentrations of the compounds of the present invention were 10 µM, 3.3333 µM, 1.1111 µM, 0.3704 µM, 0.1235 µM, 0.0412 µM, 0.0137 µM, 0.0046 µM, 0.0015 µM, 0.00 µM; • (2) Prepare the enzyme reaction working solution: • Perform SHP2 enzymatic assays in 96-well black polystyrene plates (flat bottom, low flange, non-binding surface) (Perki Elmer, Cat#6005270) at room temperature using a final reaction volume of 50 µL and the following assay buffer conditions: 60 mM HEPES, 75 mM NaCl, 75 mM KCl, 0.05% BRIJ-35, 1 mM EDTA, 5 mM DTT. • (3) Enzyme-catalyzed reaction and data monitoring: • Add the compound of the present invention to the corresponding 96-well plate, and set the blank test well without compound and enzyme only with buffer. Thaw SHP2 Activating Peptide (IRS1_pY1172(dPEG8)pY1222) on ice, add 25 µM to each well, then add 0.2 ng of SHP2 protein sample to the corresponding well plate and incubate at room temperature for 1 hour. The surrogate substrate DiFMUP (Invitrogen, Cat #D6567) was added to the reaction and allowed to react for 1 hour at room temperature. Fluorescence signals were monitored using a microplate reader (Envision, Perki Elmer) using excitation and emission wavelengths of 340 nm and […], respectively. • (4) Data analysis: • Calculation Formula: • [formula]
Among them: Conversion_sample is the conversion rate reading of the sample; Conversion_min is the average value of blank control wells, representing the conversion rate readings of wells without enzymatic activity; Conversion_max is the mean ratio of positive control wells, representing the conversion rate readings of wells without compound inhibition. The log(inhibitor) vs. response-Variable slope of the analysis software GraphPad Prism was used to fit the dose-response curve, and the IC50 value of the compound for the enzymatic activity was calculated.

[2] = Homo sapiens, NCI-H358, ultra-low adsorption plate
[3] = Homo sapiens, MV4-11, cultured for 120 hrs

| Structure (SMILES) | IC50 [1, 2] [nM] | IC50 (leukemia cells MV-4-11; [3]) [nM] | IC50 (SHP2) [nM] | IC50 ([1]; ultra-low adsorption plate) [nM] | IC50 (leukemia cells MV-4-11; cultured for 120 hrs) [nM] |
| --- | --- | --- | --- | --- | --- |
| N[C@@H]1c2ccccc2CC12CCN(c1ncc(C#CCOc3ccccc3)nc1CO)CC2 [Compound A01, (S)-(3-(1-amino-1,3-dihydrospiro [indene-2,4′-piperidine]-1′-yl)-6-(3-phenoxyprop-1-yn-1-yl)pyrazin-2-yl)methanol] | 7.3 | 2.6 | 1.2 |  |  |
| COc1cccc(OCC#Cc2cnc(N3CCC4(CC3)Cc3ccccc3[C@H]4N)c(CO)n2)c1 [Compound A02, (S)-(3-(1-amino-1,3-dihydrospiro [indene-2,4′-piperidine]-1′-yl)-6-(3-(3-methoxyphenoxy)prop-1-yn-1-yl)pyrazin-2-yl) methanol] | 7.8 | 5 | 0.7 |  |  |
| N[C@@H]1c2ccccc2CC12CCN(c1ncc(C#CCNc3ccccc3)nc1CO)CC2 [Compound A07, (S)-(3-(1-amino-1,3-dihydrospiro [indene-2,4′-piperidine]-1′-yl)-6-(3-(phenylamino)prop-1-yn-1-yl)pyrazin-2-yl) methanol] | 12 | 5.5 | 2.5 |  |  |
| CN(C)C(=O)c1cccc(OCC#Cc2cnc(N3CCC4(CC3)Cc3ccccc3[C@H]4N)c(CO)n2)c1 [Compound A36, (S)-3-((3-(5-(1-amino-1,3-dihydrospiro[indene-2,4′-piperidin]-1′-yl)-6-(hydroxymethyl)pyrazin-2-yl)prop-2-yn-1-yl)oxy)-N,N-dimethylb enzamide] | 48 | 14 |  |  |  |
| N[C@@H]1c2ccccc2CC12CCN(c1ncc(C#CCNc3ccc4c(c3)NC(=O)CC4)nc1CO)CC2 [Compound A64, (S)-7-((3-(5-(1-amino-1,3-dihydrospiro[indene-2,4′-piperidin]-1′-yl)-6-(hydroxymethyl)pyrazin-2-yl)prop-2-yn-1-yl)amino)-3,4-dihydroq uinolin-2(1H)-one] | 2.1 | 0.9 |  |  |  |
| N[C@@H]1c2ccccc2CC12CCN(c1ncc(C#CCOc3ccc4[nH]ncc4c3)nc1CO)CC2 [Compound A67, (S)-(6-(3-((1H-Indazol-5-yl)oxy)prop-1-yn-1-yl)-3-(1-amino-1,3-dihydrospiro[Indene-2,4′-piperidin]-1 ‘-yl)pyrazin-2-yl)methanol] | 0.9 | 1 |  |  |  |
| Nc1nc2cc(OCC#Cc3cnc(N4CCC5(CC4)Cc4ccccc4[C@H]5N)c(CO)n3)ccc2o1 [Compound A69, (S)-(3-(1-amino-1,3-dihydrospiro[inden-2,4′-piperidin]-1′-yl)-6-(3-((2-Aminobenzo[d]oxazol-5-yl)oxy)prop-1-yn-1-yl)pyrazin-2-yl)met hanol] | 2.1 | 0.7 |  |  |  |
| N[C@@H]1c2ccccc2CC12CCN(c1ncc(C#CCOc3ccc(C(F)(F)F)nc3)nc1CO)CC2 [Compound A70, (S)-(3-(1-amino-1,3-dihydrospiro[indene-2,4′-piperidin]-1′-yl)-6-(3-( (6-(trifluoromethyl)pyridin-3-yl)oxy)prop-1-yn-1-yl)pyrazin-2-yl)m ethanol] | 17 | 6.2 |  |  |  |
| CNC(=O)c1ccc(OCC#Cc2cnc(N3CCC4(CC3)Cc3ccccc3[C@H]4N)c(CO)n2)cc1 [Compound A72, (S)-4-((3-(5-(1-amino-1,3-dihydrospiro[indene-2,4′-piperidin]-1′-yl)-6-(hydroxymethyl)pyrazin-2-yl)prop-2-yn-1-yl)oxy)-N-methylbenzamide] | 3.5 | 1.8 |  |  |  |

Further lines, results first:

| IC50 [1, 2] [nM] | IC50 (leukemia cells MV-4-11; [3]) [nM] | IC50 (SHP2) [nM] | IC50 ([1]; ultra-low adsorption plate) [nM] | IC50 (leukemia cells MV-4-11; cultured for 120 hrs) [nM] | Structure (SMILES) |
| --- | --- | --- | --- | --- | --- |
|  |  | 1.1 | 2.5 | 1.5 | Nc1cccc(OCC#Cc2cnc(N3CCC4(CC3)Cc3ccccc3[C@H]4N)c(CO)n2)c1 [Compound A03] |
| 4 | 3.6 | 2.9 |  |  | CC(=O)Nc1cccc(OCC#Cc2cnc(N3CCC4(CC3)Cc3ccccc3[C@H]4N)c(CO)n2)c1 [Compound A04, (S)-N-(3-((3-(5-(1-amino-1,3-dihydrospiro[indene-2,4′-piperidin]-1′-yl)-6-(hydroxymethyl)pyrazin-2-yl)prop-2-yn-1-yl)oxy)phenyl)acetamide] |
| 15 | 14 |  |  |  | N[C@@H]1c2ccccc2CC12CCN(c1ncc(C#CCOc3cccc(Cl)c3F)nc1CO)CC2 [Compound A05, (S)-(3-(1-amino-1,3-dihydrospiro[indene-2,4′-piperidin]-1′-yl)-6-(3-(3-chloro-2-fluorophenoxy)prop-1-yn-1-yl)pyrazin-2-yl)methanol] |
| 11 | 8 | 6.8 |  |  | COc1cccc(SCC#Cc2cnc(N3CCC4(CC3)Cc3ccccc3[C@H]4N)c(CO)n2)c1 [Compound A06, (S)-(3-(1-amino-1,3-dihydrospiro[indene-2,4′-piperidin]-1′-yl)-6-(3-((3-methoxyphenyl)thio)prop-1-yn-1-yl)pyrazin-2-yl)methanol] |
| 4.3 | 4.4 |  |  |  | COc1ccccc1OCC#Cc1cnc(N2CCC3(CC2)Cc2ccccc2[C@H]3N)c(CO)n1 [Compound A10, (S)-(3-(1-amino-1,3-dihydrospiro[indene-2,4′-piperidin]-1′-yl)-6-(3-(2-methoxyphenoxy)prop-1-yn-1-yl)pyrazin-2-yl)methanol] |
| 11 | 6.9 |  |  |  | CC(=O)c1cccc(OCC#Cc2cnc(N3CCC4(CC3)Cc3ccccc3[C@H]4N)c(CO)n2)c1 [Compound A16, (S)-1-(3-((3-(5-(1-amino-1,3-dihydrospiro[indene-2,4′-piperidin]-1′-yl)-6-(hydroxymethyl)pyrazin-2-yl)prop-2-yn-1-yl)oxy)phenyl)etha n-1-one] |
| 51 | 25 |  |  |  | CC(=O)Nc1cccc(OCC#Cc2cnc(N3CCC4(CC3)Cc3ccccc3[C@H]4N)n(C)c2=O)c1 [Compound A34, (S)-N-(3-((3-(2-(1-amino-1,3-dihydrospiro[indene-2,4′-piperidin]-1′-yl)-1-methyl-6-oxo-1,6-dihydropyrimidin-5-yl)prop-2-yn-1-yl)oxy)phenyl)acetamide] |
| 3.6 | 3 |  |  |  | CNC(=O)c1cccc(OCC#Cc2cnc(N3CCC4(CC3)Cc3ccccc3[C@H]4N)c(CO)n2)c1 [Compound A35, (S)-3-((3-(5-(1-amino-1,3-dihydrospiro[indene-2,4′-piperidine]-1′-yl)-6-(hydroxymethyl)pyrazin-2-yl)prop-2-yn-1-yl)oxy)-N-methylben zamide] |
|  |  | 15 |  |  | NC(=O)c1nc(C#CCOc2ccc3c(c2)C(=O)NC3)cnc1N1CCC2(CC1)Cc1ccccc1[C@H]2N [Compound A42] |
